# Experimental data taken from ChEMBL document CHEMBL1201862, “PubChem BioAssay data set” (2004).
# Activity calls are given as the source filed them.
# Columns and labels:
# [1] = antiviral protection against BTV-induced cell death – arbovirus, BSR cells, confirmation (AID 1250); type: functional;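 note: protection from viral cytopathic effect measured as cell viability by ATP luminescence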
# [2] = M. tuberculosis H37Rv growth inhibitors, H37Rv strain (AID 1626); type: functional
# Procathepsin L = Procathepsin L (Homo sapiens, UniProt P07711); assay: CTSL1 protease inhibition – biochemical, QFRET, 1536-well, counter-screen for M1/M17 aminopeptidase inhibitor project, dose response (AID 2214)
# Sequence of Procathepsin L (P07711 whole entry): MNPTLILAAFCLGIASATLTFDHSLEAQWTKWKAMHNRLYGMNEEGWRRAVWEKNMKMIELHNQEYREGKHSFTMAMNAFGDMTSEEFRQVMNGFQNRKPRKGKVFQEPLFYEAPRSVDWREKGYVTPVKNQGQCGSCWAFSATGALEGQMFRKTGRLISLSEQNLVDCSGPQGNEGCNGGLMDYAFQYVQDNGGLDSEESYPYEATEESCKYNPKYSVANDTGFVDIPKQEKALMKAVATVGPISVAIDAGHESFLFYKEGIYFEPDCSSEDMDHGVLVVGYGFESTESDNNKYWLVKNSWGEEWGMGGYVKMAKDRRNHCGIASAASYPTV
# Aspartyl aminopeptidase = Aspartyl aminopeptidase (Plasmodium falciparum 3D7, UniProt Q8I2J3); assay: Counterscreen for inhibitors of M1 and M17 aminopeptidases: QFRET-based biochemical high throughput dose response assay for inhibitors of the Plasmodium falciparum M18 Aspartyl Aminopeptidase (PFM18AAP). [Related PubChem assays: 1619 (Screening assay (M17LAP inhibitors).), 1445 (Screening assay (M1AAP inhibitors).)]
# Sequence of Aspartyl aminopeptidase (Q8I2J3 whole entry): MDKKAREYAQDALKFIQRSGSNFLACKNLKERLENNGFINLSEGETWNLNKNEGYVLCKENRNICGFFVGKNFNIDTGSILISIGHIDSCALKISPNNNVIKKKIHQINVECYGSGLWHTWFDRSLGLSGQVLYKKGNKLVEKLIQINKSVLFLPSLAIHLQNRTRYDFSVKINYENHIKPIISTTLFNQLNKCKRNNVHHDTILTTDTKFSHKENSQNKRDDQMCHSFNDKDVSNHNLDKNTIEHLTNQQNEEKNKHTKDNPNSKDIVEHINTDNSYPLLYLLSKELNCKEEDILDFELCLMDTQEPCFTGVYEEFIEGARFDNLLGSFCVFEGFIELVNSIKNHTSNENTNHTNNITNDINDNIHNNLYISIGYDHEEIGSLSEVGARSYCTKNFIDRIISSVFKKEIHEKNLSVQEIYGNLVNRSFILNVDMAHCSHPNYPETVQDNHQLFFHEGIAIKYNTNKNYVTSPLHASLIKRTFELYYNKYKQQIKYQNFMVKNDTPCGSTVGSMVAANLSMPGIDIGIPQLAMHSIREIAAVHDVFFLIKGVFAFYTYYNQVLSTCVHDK
# Leucine aminopeptidase = molecular target: T1, Leucine aminopeptidase (Plasmodium falciparum 3D7, UniProt Q8IL11); assay: P. falciparum M17LAP inhibitors, primary screen, biochemical, fluorogenic H-Leu-NHMec substrate, 1536-well (AID 1619); type: functional
# T1 sequence (Q8IL11 whole entry): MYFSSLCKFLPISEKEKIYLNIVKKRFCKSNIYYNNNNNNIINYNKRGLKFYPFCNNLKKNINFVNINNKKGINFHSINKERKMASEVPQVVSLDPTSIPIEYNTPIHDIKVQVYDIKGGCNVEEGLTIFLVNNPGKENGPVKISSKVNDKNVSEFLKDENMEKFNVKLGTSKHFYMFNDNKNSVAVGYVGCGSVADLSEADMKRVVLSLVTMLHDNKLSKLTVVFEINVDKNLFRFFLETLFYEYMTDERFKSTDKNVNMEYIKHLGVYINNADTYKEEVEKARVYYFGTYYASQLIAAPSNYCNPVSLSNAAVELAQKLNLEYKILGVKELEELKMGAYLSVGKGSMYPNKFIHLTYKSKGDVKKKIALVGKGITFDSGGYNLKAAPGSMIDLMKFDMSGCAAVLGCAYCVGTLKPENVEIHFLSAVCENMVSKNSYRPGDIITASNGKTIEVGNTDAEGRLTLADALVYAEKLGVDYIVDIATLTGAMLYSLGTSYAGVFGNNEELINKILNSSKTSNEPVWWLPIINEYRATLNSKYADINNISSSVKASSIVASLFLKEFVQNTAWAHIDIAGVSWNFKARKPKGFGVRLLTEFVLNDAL
# [3] = molecular target: Neuropeptide Y receptor type 1 (Homo sapiens, UniProt P25929); type: functional;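 note: HEK293 cells with a CNG channel challenged with NPY then isoproterenol; potency as antagonist that reverses NPY suppression of cAMP signal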
# [4] = molecular target: Neuropeptide Y receptor type 2 (Homo sapiens, UniProt P49146); type: functional, cell-based;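 note: HEK293 cells expressing the receptor and a CNG channel; stimulus was NPY near EC95 followed by isoproterenol to raise cAMP; antagonist potency measured as restoring cAMP signal that NPY suppresses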
# Sequence of Neuropeptide Y receptor type 2 (P49146 whole entry): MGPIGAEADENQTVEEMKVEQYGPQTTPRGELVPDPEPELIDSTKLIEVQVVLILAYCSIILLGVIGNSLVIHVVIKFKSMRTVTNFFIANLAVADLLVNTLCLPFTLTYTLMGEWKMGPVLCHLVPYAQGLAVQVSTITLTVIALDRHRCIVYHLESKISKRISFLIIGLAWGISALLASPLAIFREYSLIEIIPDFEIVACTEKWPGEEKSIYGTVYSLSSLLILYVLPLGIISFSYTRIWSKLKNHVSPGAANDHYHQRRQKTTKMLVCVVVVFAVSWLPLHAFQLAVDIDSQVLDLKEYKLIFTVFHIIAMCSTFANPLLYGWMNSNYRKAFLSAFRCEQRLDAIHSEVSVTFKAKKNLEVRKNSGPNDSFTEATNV
# Protein skinhead-1 = molecular target: T2, Protein skinhead-1 (Caenorhabditis elegans, UniProt P34707); type: functional
# T2 sequence (P34707 whole entry): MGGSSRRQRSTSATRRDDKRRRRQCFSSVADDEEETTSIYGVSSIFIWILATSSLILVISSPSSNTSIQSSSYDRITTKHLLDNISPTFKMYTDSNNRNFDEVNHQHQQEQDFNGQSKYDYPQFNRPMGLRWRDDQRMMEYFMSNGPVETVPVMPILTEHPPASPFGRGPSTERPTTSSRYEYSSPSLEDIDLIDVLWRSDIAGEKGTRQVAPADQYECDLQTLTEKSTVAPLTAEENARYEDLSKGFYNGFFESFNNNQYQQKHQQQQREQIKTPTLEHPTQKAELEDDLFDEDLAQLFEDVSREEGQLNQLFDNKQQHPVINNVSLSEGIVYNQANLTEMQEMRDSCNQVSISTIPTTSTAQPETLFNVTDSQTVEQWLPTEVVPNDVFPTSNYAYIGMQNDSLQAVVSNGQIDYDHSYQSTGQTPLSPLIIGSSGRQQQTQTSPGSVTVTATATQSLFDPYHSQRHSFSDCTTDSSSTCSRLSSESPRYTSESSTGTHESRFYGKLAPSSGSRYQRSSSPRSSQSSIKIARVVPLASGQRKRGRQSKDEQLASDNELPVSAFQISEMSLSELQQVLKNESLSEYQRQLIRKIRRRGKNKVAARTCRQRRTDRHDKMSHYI
# [5] = molecular target: Mothers against decapentaplegic homolog 3 (Homo sapiens, UniProt P84022); assay: inhibitors of SMAD-driven TGF-beta signaling – dose response (AID 715); type: functional
# Sequence of Mothers against decapentaplegic homolog 3 (P84022 whole entry): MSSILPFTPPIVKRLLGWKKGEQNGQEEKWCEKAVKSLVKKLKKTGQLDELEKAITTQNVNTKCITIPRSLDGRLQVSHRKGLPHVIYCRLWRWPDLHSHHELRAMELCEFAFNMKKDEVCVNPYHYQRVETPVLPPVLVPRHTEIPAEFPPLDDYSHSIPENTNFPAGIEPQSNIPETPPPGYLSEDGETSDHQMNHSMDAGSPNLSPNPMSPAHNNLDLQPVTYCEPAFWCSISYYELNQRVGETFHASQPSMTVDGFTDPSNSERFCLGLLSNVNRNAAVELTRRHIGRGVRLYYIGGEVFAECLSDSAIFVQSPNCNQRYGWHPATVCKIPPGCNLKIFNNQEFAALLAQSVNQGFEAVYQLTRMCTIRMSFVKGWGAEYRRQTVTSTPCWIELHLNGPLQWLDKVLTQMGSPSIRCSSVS
# Mucolipin-3 = molecular target: T3, Mucolipin-3 (Homo sapiens, UniProt Q8TDD5); assay: Fluorescence counterscreen assay for […] agonists: dose response cell-based high-throughput screening assay to identify agonists of the transient receptor potential channel ML3 (TRPML3). [Related pubchem assays: 1424, 1448 ]; type: functional
# T3 sequence (Q8TDD5 whole entry): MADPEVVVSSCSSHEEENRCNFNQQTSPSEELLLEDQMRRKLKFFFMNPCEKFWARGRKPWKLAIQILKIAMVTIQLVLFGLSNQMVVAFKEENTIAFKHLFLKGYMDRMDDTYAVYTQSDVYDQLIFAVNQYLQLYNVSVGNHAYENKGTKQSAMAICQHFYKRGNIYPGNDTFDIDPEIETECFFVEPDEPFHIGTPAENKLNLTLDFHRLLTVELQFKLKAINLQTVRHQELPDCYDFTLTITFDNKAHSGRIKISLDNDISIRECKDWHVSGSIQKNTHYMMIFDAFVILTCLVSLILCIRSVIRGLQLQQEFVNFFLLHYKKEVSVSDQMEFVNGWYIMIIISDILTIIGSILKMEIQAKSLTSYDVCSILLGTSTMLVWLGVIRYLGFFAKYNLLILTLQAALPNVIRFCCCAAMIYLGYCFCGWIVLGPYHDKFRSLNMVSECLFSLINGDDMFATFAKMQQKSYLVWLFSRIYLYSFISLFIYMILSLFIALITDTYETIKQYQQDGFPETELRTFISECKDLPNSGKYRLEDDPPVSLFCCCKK
# [6] = molecular target: Sphingosine 1-phosphate receptor 1 (Homo sapiens, UniProt P21453); type: functional;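 note: Tango beta-arrestin reporter U2OS cells stimulated with S1P near its EC80; inhibitor potency meaning antagonism of receptor activation by the natural agonist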
# BJ [7] = assay: BJ-TERT-LT-ST fibroblast viability loss – cell-based, RAS-independent, luminescence, dose response (AID 1935); type: functional; details: Homo sapiens;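 note: BJ fibroblasts immortalized with TERT plus LT and ST oncogenes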
# INS1 = assay: INS-1E survival protection against cytokine death – cell-based, luminescence, retest, dose response (AID 449756); type: functional; details: Rattus norvegicus;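 note: cell death triggered by IL-1 beta plus TNF-alpha plus IFN-gamma mixture; protective hits raise ATP signal compared with cytokine alone wells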
# [8] = molecular target: T4, Sphingosine 1-phosphate receptor 4 (Homo sapiens, UniProt O95977); assay: Fluorescence dose response cell-based high throughput screening assay for antagonists of the Sphingosine 1-Phosphate Receptor 4 (S1P4). [Related pubchem assays: 1524 (Confirmation in triplicates.), 1510 (Primary screen.)]; type: functional
# T4 sequence (O95977 whole entry): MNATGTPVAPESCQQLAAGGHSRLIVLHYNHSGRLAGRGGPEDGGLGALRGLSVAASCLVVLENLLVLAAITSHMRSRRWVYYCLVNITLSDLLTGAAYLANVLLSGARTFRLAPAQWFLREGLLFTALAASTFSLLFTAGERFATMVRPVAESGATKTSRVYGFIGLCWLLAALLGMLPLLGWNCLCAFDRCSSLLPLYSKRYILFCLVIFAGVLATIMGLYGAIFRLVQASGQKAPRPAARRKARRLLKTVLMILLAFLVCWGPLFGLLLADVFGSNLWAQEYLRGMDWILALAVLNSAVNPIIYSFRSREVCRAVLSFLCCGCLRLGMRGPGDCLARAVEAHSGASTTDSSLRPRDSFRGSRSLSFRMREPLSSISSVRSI
# BJ [9] = assay: BJ-TERT fibroblast viability loss – cell-based, RAS-independent, luminescence, dose response (AID 1933); type: functional; details: Homo sapiens
# BJ [10] = assay: growth inhibition of engineered Ras-driven BJ cells – cell-based, alamar blue fluorescence, cherrypicked samples, dose response (AID 2631); type: functional; details: Homo sapiens;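 note: confirmatory dose-response assay in RAS-dependent BJ fibroblasts engineered with TERT, LT and ST, with cytotoxicity read by fluorescence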
# BJ [11] = assay: cells; type: functional, cell-based; details: Homo sapiens
# Ion channel NompC = Ion channel NompC (Danio rerio, UniProt Q7T1G6); assay: Dose response cell-based high-throughput screening assay for agonists of the transient receptor potential channel N1 (TRPN1). [Related pubchem assays (depositor defined):AID1424, AID1448]; type: functional
# Sequence of Ion channel NompC (Q7T1G6 whole entry): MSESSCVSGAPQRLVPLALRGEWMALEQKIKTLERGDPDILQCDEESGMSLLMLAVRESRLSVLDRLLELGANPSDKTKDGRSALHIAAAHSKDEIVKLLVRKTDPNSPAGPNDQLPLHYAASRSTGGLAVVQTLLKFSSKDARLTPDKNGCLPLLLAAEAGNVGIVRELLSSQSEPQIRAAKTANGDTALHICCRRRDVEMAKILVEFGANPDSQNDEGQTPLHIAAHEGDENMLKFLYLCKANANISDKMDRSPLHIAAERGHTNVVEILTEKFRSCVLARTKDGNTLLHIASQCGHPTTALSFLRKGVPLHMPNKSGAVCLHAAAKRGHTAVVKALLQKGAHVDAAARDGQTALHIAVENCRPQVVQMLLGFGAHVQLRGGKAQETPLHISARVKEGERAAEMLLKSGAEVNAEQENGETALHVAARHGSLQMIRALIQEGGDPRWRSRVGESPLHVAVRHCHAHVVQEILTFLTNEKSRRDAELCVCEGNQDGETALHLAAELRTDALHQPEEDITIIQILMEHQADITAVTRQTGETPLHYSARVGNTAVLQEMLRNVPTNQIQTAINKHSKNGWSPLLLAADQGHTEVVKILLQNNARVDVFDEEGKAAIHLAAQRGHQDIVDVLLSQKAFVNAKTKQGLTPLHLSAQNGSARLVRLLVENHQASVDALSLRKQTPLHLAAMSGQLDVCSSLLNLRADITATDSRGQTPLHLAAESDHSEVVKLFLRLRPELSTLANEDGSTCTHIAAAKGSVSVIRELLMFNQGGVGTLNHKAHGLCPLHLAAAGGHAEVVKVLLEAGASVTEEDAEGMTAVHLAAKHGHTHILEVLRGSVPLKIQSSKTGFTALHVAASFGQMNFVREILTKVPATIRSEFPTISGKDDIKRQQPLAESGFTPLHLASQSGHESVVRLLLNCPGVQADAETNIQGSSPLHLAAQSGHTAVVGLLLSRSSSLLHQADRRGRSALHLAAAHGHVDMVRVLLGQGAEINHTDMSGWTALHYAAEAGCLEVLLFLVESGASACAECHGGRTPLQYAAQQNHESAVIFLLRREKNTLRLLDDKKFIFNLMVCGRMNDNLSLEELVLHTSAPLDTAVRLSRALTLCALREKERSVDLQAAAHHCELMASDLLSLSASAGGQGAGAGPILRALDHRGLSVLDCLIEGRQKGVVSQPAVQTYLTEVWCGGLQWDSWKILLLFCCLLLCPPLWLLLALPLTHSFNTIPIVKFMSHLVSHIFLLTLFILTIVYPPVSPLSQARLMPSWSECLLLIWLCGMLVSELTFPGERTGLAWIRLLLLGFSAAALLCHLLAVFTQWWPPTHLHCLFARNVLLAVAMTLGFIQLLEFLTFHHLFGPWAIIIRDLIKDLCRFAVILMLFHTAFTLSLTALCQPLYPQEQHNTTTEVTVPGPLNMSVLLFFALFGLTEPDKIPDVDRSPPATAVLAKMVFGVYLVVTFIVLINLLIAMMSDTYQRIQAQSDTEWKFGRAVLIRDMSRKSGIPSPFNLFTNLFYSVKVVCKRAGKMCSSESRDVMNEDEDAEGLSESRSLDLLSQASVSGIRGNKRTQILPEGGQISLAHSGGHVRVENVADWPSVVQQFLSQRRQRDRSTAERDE
# [12] = molecular target: T4, Sphingosine 1-phosphate receptor 4; assay: Late stage fluorescence dose response cell-based screening assay for antagonists of the Sphingosine 1-Phosphate Receptor 4 (S1P4). [Related pubchem assays: 1524 (Confirmation screen (S1P4 antagonists).), 1510 (Primary screen (S1P4 antagonists).), 1853 (Summary AID (S1P4 antagonists).), 1692 (Dose response screen (S1P4 antagonists).)]; type: functional
# [13] = DRD fibroblast viability loss – cell-based, non-viral oncogenic, luminescence, dose response (AID 1934); type: functional; details: Homo sapiens
# Cytochrome P450 2D6 = Cytochrome P450 2D6 (Homo sapiens, UniProt P10635);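 note: CYP2D6 member of a cytochrome P450 panel assay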
# Sequence of Cytochrome P450 2D6 (P10635 whole entry): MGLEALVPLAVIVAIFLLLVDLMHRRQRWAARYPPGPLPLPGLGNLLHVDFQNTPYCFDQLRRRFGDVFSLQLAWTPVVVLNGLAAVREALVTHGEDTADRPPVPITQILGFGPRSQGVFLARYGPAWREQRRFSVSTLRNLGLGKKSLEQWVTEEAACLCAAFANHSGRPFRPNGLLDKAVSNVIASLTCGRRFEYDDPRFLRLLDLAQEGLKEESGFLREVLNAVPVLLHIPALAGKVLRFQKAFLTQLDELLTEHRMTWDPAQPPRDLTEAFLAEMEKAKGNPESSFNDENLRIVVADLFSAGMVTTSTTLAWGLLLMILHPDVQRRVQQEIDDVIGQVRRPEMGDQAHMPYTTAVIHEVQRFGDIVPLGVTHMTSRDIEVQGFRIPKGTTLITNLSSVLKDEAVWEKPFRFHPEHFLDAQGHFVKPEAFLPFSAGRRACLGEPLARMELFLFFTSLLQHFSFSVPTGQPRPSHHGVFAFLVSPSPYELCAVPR
# [14] = HEK-293T viability loss after treatment – luminescence, T-cell screen hits, cytotoxicity control for TCR NF-kB inhibitor project, dose response (AID 489026); type: functional, cell-based;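 note: cells exposed to compound about 14 hours before the viability readout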
# [15] = Luminescence Cell-Based Dose Confirmation HTS to Identify Inhibitors of Polyadenylation.; type: functional
# [16] = viability of uninfected HEp-2 cells – cell-based, HTS, cytotoxicity control for RSV inhibitor project, dose response (AID 2410); type: functional; details: human respiratory syncytial virus
# [17] = molecular target: T5, Endoribonuclease toxin MazF (Escherichia coli K-12, UniProt P0AE70); assay: substrate-only fluorescence increase artefacts – biochemical, single-stranded RNase substrate, counter-screen for MazEF activator project, dose response (AID 588502); type: functional
# T5 sequence (P0AE70 whole entry): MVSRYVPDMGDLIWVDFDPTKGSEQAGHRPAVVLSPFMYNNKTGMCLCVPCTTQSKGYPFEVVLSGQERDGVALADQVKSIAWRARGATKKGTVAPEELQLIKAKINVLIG
# Estrogen receptor = molecular target: T6, Estrogen receptor (Homo sapiens, UniProt P03372);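 note: potency for inhibiting coactivator peptide recruitment to the receptor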
# T6 sequence (P03372 whole entry): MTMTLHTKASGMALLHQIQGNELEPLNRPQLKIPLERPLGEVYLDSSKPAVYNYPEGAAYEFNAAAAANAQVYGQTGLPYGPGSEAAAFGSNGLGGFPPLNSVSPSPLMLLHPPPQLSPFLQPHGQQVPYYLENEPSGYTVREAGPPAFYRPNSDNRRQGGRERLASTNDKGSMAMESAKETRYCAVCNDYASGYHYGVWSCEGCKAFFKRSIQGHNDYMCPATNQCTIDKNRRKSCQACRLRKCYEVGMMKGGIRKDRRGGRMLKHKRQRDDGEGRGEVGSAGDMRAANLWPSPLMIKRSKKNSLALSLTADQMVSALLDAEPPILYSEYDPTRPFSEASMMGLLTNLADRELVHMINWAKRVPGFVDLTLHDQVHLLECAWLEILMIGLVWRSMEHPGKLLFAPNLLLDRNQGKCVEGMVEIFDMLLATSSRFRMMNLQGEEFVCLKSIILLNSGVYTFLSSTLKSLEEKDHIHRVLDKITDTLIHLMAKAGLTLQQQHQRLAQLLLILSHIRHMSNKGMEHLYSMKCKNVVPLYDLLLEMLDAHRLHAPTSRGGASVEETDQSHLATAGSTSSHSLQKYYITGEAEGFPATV
# [18] = molecular target: T5, Endoribonuclease toxin MazF; assay: activation of MazEF endoribonuclease cleavage – biochemical, fluorescence, single-stranded RNA substrate, uHTS hits, dose response (AID 588481); type: functional
# [19] = viability loss in HEK293T cells – cell-based, cherry-picks, cytotoxicity control for HIV Vif inhibitor project, dose response (AID 652208); type: functional
# Genome polyprotein = Genome polyprotein (dengue virus type 2, UniProt P29990); assay: flavivirus cap methylation enzyme inhibition – biochemical, confirmation dose response, primary screen (AID 588689); type: functional
# Sequence of Genome polyprotein (P29990 2492-3391 limits assumed): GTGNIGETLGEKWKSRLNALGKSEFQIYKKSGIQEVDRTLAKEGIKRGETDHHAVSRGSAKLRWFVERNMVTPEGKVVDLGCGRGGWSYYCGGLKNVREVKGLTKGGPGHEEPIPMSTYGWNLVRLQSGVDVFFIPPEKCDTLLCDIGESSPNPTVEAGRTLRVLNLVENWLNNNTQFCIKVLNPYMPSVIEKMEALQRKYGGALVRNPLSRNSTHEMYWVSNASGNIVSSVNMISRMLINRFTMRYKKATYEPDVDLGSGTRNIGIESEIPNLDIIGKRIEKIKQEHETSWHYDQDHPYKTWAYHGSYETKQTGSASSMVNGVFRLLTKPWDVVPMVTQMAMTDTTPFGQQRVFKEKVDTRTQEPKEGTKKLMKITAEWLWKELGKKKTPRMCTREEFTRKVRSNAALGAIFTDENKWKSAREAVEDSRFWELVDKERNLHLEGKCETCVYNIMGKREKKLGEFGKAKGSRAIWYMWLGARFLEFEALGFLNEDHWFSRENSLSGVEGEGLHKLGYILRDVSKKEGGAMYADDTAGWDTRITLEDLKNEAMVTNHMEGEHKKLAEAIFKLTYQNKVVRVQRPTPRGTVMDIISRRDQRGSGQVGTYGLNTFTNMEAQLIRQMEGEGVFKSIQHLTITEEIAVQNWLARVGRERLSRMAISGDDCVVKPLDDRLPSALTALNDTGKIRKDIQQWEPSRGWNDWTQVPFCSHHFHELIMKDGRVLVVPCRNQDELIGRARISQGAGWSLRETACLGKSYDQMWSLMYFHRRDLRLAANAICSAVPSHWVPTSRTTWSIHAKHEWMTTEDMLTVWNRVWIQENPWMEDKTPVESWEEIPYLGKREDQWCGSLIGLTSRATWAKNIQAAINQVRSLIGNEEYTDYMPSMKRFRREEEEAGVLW
# [20] = molecular target: T7, Mannose-6-phosphate isomerase (Homo sapiens, UniProt P34949); assay: MPI enzyme activity inhibition – biochemical, fluorescence intensity, coupled assay, primary screen (AID 1209)
# T7 sequence (P34949 whole entry): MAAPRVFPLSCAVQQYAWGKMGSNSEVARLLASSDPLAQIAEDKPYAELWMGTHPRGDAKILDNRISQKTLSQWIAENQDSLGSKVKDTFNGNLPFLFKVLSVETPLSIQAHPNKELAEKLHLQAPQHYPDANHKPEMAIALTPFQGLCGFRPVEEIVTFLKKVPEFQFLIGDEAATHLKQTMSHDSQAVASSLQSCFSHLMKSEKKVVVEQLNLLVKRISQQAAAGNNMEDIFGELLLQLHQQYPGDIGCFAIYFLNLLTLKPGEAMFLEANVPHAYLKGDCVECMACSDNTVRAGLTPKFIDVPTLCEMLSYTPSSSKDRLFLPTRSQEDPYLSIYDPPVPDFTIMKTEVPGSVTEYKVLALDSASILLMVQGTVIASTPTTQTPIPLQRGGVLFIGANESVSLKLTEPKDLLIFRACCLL
# [21] = molecular target: T7, Mannose-6-phosphate isomerase; assay: MPI inhibition at elevated mannose 6-phosphate – biochemical, fluorescence intensity, high mannose 6-phosphate, primary screen (AID 1220)
structure (smiles),measurement,setting,value
CC1CCc2c(sc(NC(=O)c3ccccc3C(=O)O)c2C#N)C1 (stereo unspecified),IC50,[1],24 µM (active)
Cn1nc(C(F)(F)F)c(-c2ccc(Br)cc2)c1NC(=O)c1cccnc1,IC50,[2],> 100 µM (active)
CCOc1ccc(NC(=O)Nc2ccc3nccnc3c2)cc1,IC50,Procathepsin L,> 59.6 µM (not active)
same,IC50,Aspartyl aminopeptidase,> 73.5 µM (not active)
same,IC50,Leucine aminopeptidase,5.45 µM (active)
Clc1ccc(-c2nnn(Cc3nc4ccccc4s3)n2)cc1,IC50,[3],13.4 µM (not active)
same,IC50,[4],15.1 µM (not active)
same,IC50,Protein skinhead-1,> 100 µM (inactive)
CCCc1cc(=O)[nH]c(N=C(NC(=O)C(C)N2C(=O)c3ccccc3C2=O)Nc2ccccc2)n1 (stereo unspecified),IC50,[5],8.78 µM (active)
C=C1C(=O)C=C2CN(C(=O)c3ccccc3)[C@@](Cc3ccc(F)cc3)(C(=O)OC)[C@@H]12,EC50,Mucolipin-3,1.12 µM (active)
same,IC50,[6],12 µM (not active)
same,EC50,BJ [7],0.554 µM (inconclusive)
same,AC50,INS1,1.58 µM (active)
same,IC50,[8],0.473 µM (active)
same,EC50,BJ [9],0.333 µM (active)
same,EC50,BJ [10],< 0.104 µM (active)
same,EC50,BJ [11],8.08 µM (inconclusive)
same,EC50,Ion channel NompC,> 1.11 µM (inactive)
same,IC50,[12],3.7 µM (not active)
same,EC50,[13],0.662 µM (active)
same,AC50,Cytochrome P450 2D6,39.8 µM (inconclusive)
same,IC50,[14],> 80 µM (inactive)
COc1ccc(-c2cccc(NC(=O)COc3ccc(Cl)cc3)c2)nn1,EC50,[15],> 120 µM (not active)
O=C(Nc1ccc2oc(-c3ccc4ccccc4c3)nc2c1)c1cccs1,CC50,[16],18.6 µM (active)
same,EC50,[17],> 99 µM (inactive)
same,IC50,Estrogen receptor,27.7 µM (active)
same,EC50,[18],> 99 µM (inactive)
same,AC50,[19],31 µM (active)
Cc1cc(C(=O)N/N=C/c2ccc(O)c(O)c2O)c(C)n1-c1ccccc1,IC50,Genome polyprotein,41.9 µM (active)
same,IC50,[20],> 50 µM (not active)
same,IC50,[21],> 50 µM (not active)
